Laboratory results reported in paper PMC6271965, “Inhibition of GlcNAc-Processing Glycosidases by C-6-Azido-NAG-Thiazoline and Its Derivatives” (Molecules, 2014).
Like-named read-outs stand apart in the source and are kept apart here.

Legend:
Assay in all cases: pNP-β-GlcNAc hydrolysis, kinetic assay at […] nm
Format in all cases: biochemical
[1] = target: T1, β-N-acetylhexosaminidase from Talaromyces flavus (Talaromyces flavus, UniProt G5DAA0)
T1 construct: recombinant, secreted from Pichia pastoris, purified by cation exchange chromatography; GH20
T1 sequence (G5DAA0 18-628): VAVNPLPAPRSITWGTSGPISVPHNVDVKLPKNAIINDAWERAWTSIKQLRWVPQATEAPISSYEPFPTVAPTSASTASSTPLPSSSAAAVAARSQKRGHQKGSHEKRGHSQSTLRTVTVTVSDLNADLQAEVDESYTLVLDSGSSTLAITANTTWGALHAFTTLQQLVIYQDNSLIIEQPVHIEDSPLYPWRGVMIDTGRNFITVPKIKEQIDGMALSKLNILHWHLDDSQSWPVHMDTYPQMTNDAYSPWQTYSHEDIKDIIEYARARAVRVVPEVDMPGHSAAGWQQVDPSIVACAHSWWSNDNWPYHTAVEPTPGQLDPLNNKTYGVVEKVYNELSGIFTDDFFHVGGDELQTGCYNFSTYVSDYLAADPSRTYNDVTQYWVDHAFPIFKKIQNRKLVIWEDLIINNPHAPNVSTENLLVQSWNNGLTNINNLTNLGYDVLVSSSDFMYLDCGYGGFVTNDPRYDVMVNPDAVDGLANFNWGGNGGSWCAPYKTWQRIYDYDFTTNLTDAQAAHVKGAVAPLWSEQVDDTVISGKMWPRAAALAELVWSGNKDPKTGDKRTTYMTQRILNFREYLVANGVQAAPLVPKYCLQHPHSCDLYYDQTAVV

[2] = target: T2, β-N-acetylhexosaminidase from Streptomyces plicatus (Streptomyces plicatus, UniProt O85361); details: read-out: KI [μM] / NAG-thiazoline (1)
T2 construct: gene hex; synthetic gene, His6-tagged fusion in pET-15b (NdeI/BamHI), E. coli BL21(DE3) pLysS, Ni-NTA purified; GH20
T2 sequence (O85361 1-506): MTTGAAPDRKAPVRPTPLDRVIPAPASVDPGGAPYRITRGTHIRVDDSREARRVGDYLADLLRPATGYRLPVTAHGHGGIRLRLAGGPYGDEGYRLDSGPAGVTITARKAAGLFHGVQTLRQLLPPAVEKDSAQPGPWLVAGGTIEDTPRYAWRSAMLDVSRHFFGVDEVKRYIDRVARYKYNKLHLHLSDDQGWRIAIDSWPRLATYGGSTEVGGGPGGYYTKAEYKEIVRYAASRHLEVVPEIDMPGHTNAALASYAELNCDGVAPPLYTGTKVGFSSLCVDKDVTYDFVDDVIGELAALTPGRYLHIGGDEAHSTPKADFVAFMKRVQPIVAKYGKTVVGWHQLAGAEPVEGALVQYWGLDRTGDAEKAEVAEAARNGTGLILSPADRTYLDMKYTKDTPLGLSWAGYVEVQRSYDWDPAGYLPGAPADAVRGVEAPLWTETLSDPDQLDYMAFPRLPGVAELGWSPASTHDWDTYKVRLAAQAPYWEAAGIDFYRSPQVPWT

[3] = target: T3, O-GlcNAcase from Bacteroides thetaiotaomicron (Bacteroides thetaiotaomicron, UniProt Q89ZI2)
T3 construct: gene BT_4395; gene from D. Vocadlo; GH84
T3 sequence (Q89ZI2 22-737): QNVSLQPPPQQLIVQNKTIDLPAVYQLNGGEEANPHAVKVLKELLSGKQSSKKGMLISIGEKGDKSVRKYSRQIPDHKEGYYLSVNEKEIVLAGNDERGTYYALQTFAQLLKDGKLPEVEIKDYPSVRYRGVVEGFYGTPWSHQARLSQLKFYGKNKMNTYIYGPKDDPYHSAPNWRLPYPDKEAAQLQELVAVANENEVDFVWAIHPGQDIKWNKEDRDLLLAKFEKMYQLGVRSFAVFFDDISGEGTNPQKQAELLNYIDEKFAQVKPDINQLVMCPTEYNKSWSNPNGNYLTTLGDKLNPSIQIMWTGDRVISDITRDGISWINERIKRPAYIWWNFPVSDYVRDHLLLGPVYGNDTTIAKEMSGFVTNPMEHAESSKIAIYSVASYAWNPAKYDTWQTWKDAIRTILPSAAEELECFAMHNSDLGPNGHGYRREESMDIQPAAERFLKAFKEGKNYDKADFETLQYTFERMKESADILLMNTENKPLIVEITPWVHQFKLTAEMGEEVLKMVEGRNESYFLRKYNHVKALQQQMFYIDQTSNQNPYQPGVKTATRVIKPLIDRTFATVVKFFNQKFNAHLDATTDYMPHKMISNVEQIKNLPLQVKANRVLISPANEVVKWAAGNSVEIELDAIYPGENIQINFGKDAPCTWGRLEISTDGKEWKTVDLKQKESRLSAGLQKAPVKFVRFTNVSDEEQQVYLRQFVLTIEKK

human O-GlcNAcase = target: T4, human O-GlcNAcase (Homo sapiens, UniProt O60502); details: read-out: KI [μM] / C-6-azido-NAG-thiazoline (2)
T4 construct: gene OGA; gene from D. Vocadlo; GH84
T4 sequence (O60502 1-916): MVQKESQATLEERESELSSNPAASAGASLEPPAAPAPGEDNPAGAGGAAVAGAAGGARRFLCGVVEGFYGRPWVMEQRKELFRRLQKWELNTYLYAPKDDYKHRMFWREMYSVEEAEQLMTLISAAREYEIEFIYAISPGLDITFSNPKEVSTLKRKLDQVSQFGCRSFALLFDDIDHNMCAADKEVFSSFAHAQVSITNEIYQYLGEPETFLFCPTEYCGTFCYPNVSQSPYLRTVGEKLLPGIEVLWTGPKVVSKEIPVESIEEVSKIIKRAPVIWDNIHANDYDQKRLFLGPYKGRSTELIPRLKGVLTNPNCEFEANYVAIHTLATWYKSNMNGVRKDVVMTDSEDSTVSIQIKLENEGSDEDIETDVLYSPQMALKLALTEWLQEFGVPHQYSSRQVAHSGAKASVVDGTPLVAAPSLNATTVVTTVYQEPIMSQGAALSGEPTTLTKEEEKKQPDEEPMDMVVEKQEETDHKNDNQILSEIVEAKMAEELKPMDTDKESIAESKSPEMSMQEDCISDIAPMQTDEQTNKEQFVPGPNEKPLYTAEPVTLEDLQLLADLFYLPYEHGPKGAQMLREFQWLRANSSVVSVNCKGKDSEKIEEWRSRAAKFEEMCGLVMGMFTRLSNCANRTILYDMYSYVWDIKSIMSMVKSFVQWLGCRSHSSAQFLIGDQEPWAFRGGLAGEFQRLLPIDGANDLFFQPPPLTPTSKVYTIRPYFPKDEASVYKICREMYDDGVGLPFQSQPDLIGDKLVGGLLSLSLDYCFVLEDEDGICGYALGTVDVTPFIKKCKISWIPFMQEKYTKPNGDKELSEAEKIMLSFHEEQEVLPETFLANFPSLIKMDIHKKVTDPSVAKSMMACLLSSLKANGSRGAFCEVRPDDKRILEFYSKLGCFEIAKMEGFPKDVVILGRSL

[4] = read-out: KI [μM] / NAG-thiazoline (1)
[5] = read-out: KI [μM] / C-6-azido-NAG-thiazoline (2)

| SMILES | Ki [1, 4] | Ki [2] | Ki [3, 4] | Ki [1, 5] | Ki [3, 5] | Ki (human O-GlcNAcase) |
| --- | --- | --- | --- | --- | --- | --- |
| CC1=N[C@@H]2[C@@H](O)[C@H](O)[C@@H](CO)O[C@@H]2S1 [compound 1, 1,2-Dideoxy-2'-methyl-α-D-glucopyrano-[2,1-d]-∆2'-thiazoline] | 42.7 ± 1.9 µM | 24 ± 5 µM | 0.029 ± 0.003 µM | – | – | – |
| CC1=N[C@@H]2[C@@H](O)[C@H](O)[C@@H](CN=[N+]=[N-])O[C@@H]2S1 [compound 2, 6-Azido-1,2-dideoxy-2'-methyl-α-D-glucopyrano-[2,1-d]-∆2'-thiazoline] | – | – | – | 212 ± 16.3 µM | 3.1 ± 0.3 µM | 19.3 ± 11.9 µM |
